Source: ChEMBL document CHEMBL4673355, “Thiacalixarene based quaternary ammonium salts as promising antibacterial agents” (Bioorg Med Chem, 2021)
Where “and” joins values, the source holds several entries; their conditions need not be identical. Equal entries are not always repeated.

Key:
[1] = Selectivity index, ratio of CC50 for human HSF cells to MIC for Bacillus subtilis 168; type: toxicity
[2] = Selectivity index, ratio of CC50 for human HSF cells to MIC for Staphylococcus epidermidis; type: toxicity; details: for selectivity ratio: HSF cells
[3] = Selectivity index, ratio of CC50 for human HSF cells to MIC for Staphylococcus aureus ATCC 29213; type: toxicity
[4] = tested on: Bacillus subtilis; experiment: Bactericidal activity against Bacillus subtilis 168 assessed as reduction in bacterial growth incubated for 24 hrs followed by replating on MH broth and further incubated for 24 hrs by CLSI broth microdilution method; type: functional; details: Bacillus subtilis, 168, 24 h
[5] = tested on: Staphylococcus epidermidis; experiment: Bactericidal activity against Staphylococcus epidermidis assessed as reduction in bacterial growth incubated for 24 hrs followed by replating on MH broth and further incubated for 24 hrs by CLSI broth microdilution method; type: functional; details: Staphylococcus epidermidis, read-out: MBC
[6] = tested on: Staphylococcus aureus; experiment: Bactericidal activity against Staphylococcus aureus ATCC 29213 assessed as reduction in bacterial growth incubated for 24 hrs followed by replating on MH broth and further incubated for 24 hrs by CLSI broth microdilution method; type: functional; details: Staphylococcus aureus, ATCC 29213; time 48 hrs; read-out: MBC
[7] = tested on: Escherichia coli; experiment: Antibacterial activity against Escherichia coli ATCC 25922 assessed as reduction in bacterial growth incubated for 24 hrs by CLSI broth microdilution method; type: functional
[8] = tested on: Pseudomonas aeruginosa; experiment: Antibacterial activity against Pseudomonas aeruginosa ATCC 27853 assessed as reduction in bacterial growth incubated for 24 hrs by CLSI broth microdilution method; type: functional; details: Pseudomonas aeruginosa, ATCC 27853, 24 h, read-out: MIC
[9] = tested on: Staphylococcus aureus; experiment: Antibacterial activity against Staphylococcus aureus ATCC 29213 by CLSI broth microdilution method; type: functional
[10] = tested on: Staphylococcus aureus; experiment: Bactericidal activity against Staphylococcus aureus ATCC 29213; type: functional
[11] = tested on: Escherichia coli; experiment: Bactericidal activity against Escherichia coli ATCC 25922; type: functional
[12] = tested on: Staphylococcus aureus; experiment: Antibacterial activity against Staphylococcus aureus ATCC 6538 incubated for 24 hrs by CLSI broth microdilution method; type: functional
[13] = tested on: Klebsiella pneumoniae; experiment: Antibacterial activity against Klebsiella pneumoniae ATCC 10031 assessed as reduction in bacterial growth incubated for 24 hrs by CLSI broth microdilution method; type: functional
[14] = tested on: Pseudomonas aeruginosa; experiment: Antibacterial activity against Pseudomonas aeruginosa ATCC 9027 assessed as reduction in bacterial growth incubated for 24 hrs by CLSI broth microdilution method; type: functional
[15] = Escherichia coli, ATCC 25922, 24 h, read-out: MIC

| MIC [7, 15] [µg/mL] | MIC [9] [µg/mL] | MIC [12] [µg/mL] | MIC [13] [µg/mL] | MIC [14] [µg/mL] | Compound | MBC [10] [µg/mL] | MBC [11] [µg/mL] | other results |
| --- | --- | --- | --- | --- | --- | --- | --- | --- |
| > 64 | – | – | – | – | CCCC[N+](C)(C)CCCNC(=O)COc1c2cc(C(C)(C)C)cc1Sc1cc(C(C)(C)C)cc(c1OCC(=O)NCCC[N+](C)(C)CCCC)Sc1cc(C(C)(C)C)cc(c1OCC(=O)NCCC[N+](C)(C)CCCC)Sc1cc(C(C)(C)C)cc(c1OCC(=O)NCCC[N+](C)(C)CCCC)S2.[Cl-].[Cl-].[Cl-].[Cl-] | – | – | Ratio [1]: 23 and 9; Ratio [2]: 19; selectivity ratio [2]: 11; Ratio [3]: 19; selectivity ratio ([3]; HSF cells): 11; MBC [4]: 16 µg/mL; MBC [5]: 8 µg/mL; MBC [6]: 16 µg/mL; MIC ([7]; 24 h): 64 µg/mL; MIC [8]: > 64 µg/mL |
| > 64 | – | – | – | – | CC(C)(C)c1cc2c(OCC(=O)NCCC[N+](C)(C)C)c(c1)Sc1cc(C(C)(C)C)cc(c1OCC(=O)NCCC[N+](C)(C)C)Sc1cc(C(C)(C)C)cc(c1OCC(=O)NCCC[N+](C)(C)C)Sc1cc(C(C)(C)C)cc(c1OCC(=O)NCCC[N+](C)(C)C)S2.[Cl-].[Cl-].[Cl-].[Cl-] | – | – | Ratio [1]: > 16 and 43; Ratio [2]: 11; selectivity ratio [2]: > 16; MBC [4]: 8 µg/mL; MBC [5]: 32 µg/mL; MBC [6]: > 64 µg/mL; MIC [8]: > 64 µg/mL |
| 32 | 16 | > 1000 | > 1000 | 500 | CCCCCCCCOc1c2cc(C[N+](C)(C)CCO)cc1Cc1cc(C[N+](C)(C)CCO)cc(c1OCCCCCCCC)Cc1cc(C[N+](C)(C)CCO)cc(c1OCCCCCCCC)Cc1cc(C[N+](C)(C)CCO)cc(c1OCCCCCCCC)C2.[Cl-].[Cl-].[Cl-].[Cl-] | 16 | 256 | – |
| 1000 | – | > 1000 | > 1000 | 500 | CCCCCCCCOc1c2cc(C[n+]3ccn(C)c3)cc1Cc1cc(C[n+]3ccn(C)c3)cc(c1OCCCCCCCC)Cc1cc(C[n+]3ccn(C)c3)cc(c1OCCCCCCCC)Cc1cc(C[n+]3ccn(C)c3)cc(c1OCCCCCCCC)C2.[Cl-].[Cl-].[Cl-].[Cl-] | – | – | – |
| > 1000 | – | > 1000 | > 1000 | > 1000 | CCCCCCCCOc1c2cc(C[N+](C)(C)CCN)cc1Cc1cc(C[N+](C)(C)CCN)cc(c1OCCCCCCCC)Cc1cc(C[N+](C)(C)CCN)cc(c1OCCCCCCCC)Cc1cc(C[N+](C)(C)CCN)cc(c1OCCCCCCCC)C2.[Cl-].[Cl-].[Cl-].[Cl-] | – | – | – |
| ≤ 10 | – | ≤ 10 | ≤ 10 | 50 | CCCOc1c2cc(C[n+]3ccn(C)c3)cc1Cc1cc(C[n+]3ccn(C)c3)cc(c1OCCC)Cc1cc(C[n+]3ccn(C)c3)cc(c1OCCC)Cc1cc(C[n+]3ccn(C)c3)cc(c1OCCC)C2.[Cl-].[Cl-].[Cl-].[Cl-] | – | – | – |
| 16 | 16 | – | – | – | CCCOc1c2cc(C[N+](C)(C)C)cc1Cc1cc(C[N+](C)(C)C)cc(c1OCCC)Cc1cc(C[N+](C)(C)C)cc(c1OCCC)Cc1cc(C[N+](C)(C)C)cc(c1OCCC)C2.[Cl-].[Cl-].[Cl-].[Cl-] | 16 | 16 | – |
| 500 | – | ≤ 10 | 500 | 50 | CCCOc1c2cc(C[N+](C)(C)CCN)cc1Cc1cc(C[N+](C)(C)CCN)cc(c1OCCC)Cc1cc(C[N+](C)(C)CCN)cc(c1OCCC)Cc1cc(C[N+](C)(C)CCN)cc(c1OCCC)C2.[Cl-].[Cl-].[Cl-].[Cl-] | – | – | – |
| 32 | 16 | ≤ 10 | 100 | 1000 | CCCOc1c2cc(C[N+](C)(C)CCO)cc1Cc1cc(C[N+](C)(C)CCO)cc(c1OCCC)Cc1cc(C[N+](C)(C)CCO)cc(c1OCCC)Cc1cc(C[N+](C)(C)CCO)cc(c1OCCC)C2.[Cl-].[Cl-].[Cl-].[Cl-] | 16 | 256 | – |
